This note sets out measurements from patent publication US12133895B2, “Biodegradable functional polycarbonate nanoparticle carries for delivering molecular cargo” (International Business Machines Corporation, priority 2018, dated 2024).

This series is described as follows: Oxidation (discoloration) of AMP in PBS. Type of series: physicochemical. The following applies: free AMP dissolved in PBS. The source says:
FIG. 10 illustrates a diagram of example, non-limiting photos 1000 of a first solution of free AMP and a second solution of the second loaded polymer 602 having the exemplary structure depicted in FIG. 6 (e.g., conjugated with AMP) in accordance with one or more embodiments described herein. Repetitive description of like elements employed in other embodiments described herein is omitted for sake of brevity. As shown in the photos 1000, the right vial contains free AMP dispersed in PBS, and the left vial contains of the second loaded polymer 602 having the exemplary structure depicted in FIG. 6 (e.g., conjugated with AMP) dispersed in PBS. The various photos 1000 can show the state of the two solutions over a 360 minute time period.
Both solutions begin colorless, wherein the solutions become discolored in response to oxidation.

Each structure is given as a SMILES string.

Take `CN1CCc2cccc3c2[C@H]1Cc1ccc(O)c(O)c1-3` [AMP, apomorphine]: the onset of oxidation entry was “nearly immediately”.
